We go through 35 molecules from patent US20260001864A1, “COMPOUND CONTAINING SULFAMIDE STRUCTURE, AND PREPARATION METHOD THEREFOR AND APPLICATION THEREOF, AND PHARMACEUTICAL COMPOSITION AND APPLICATION” (Nanjing Shuohui Pharmatechnology Co., Ltd, priority 2021, published 2026).

The test system of data set [1] is histamine-induced gastric acid secretion. Description: Inhibition of histamine-induced gastric acid secretion in rats (pylorus ligation). It is filed as in vivo, rat. To be noted: SD rats, total acid over 3 h after histamine. The protocol:
70 SPF-level SD rats with a weight of 180-220 g (Hangzhou Medical College (produced)), randomly grouped by weight, including negative control groups (isovolumetric saline) and model control groups (isovolumetric saline), and compounds obtained in the foregoing preparation examples of the present invention (i.e., compounds or compound hydrochlorides) (2 mg/kg or 4 mg/kg), 10 rats each group, including 5 males and 5 females. The rats were fasted, but were allowed to drink water for 24 h. After 24 h, the rats were given the compound at 1 ml/100 g by gavage, once in each group, and the rats in the negative control groups and the model groups were given an equal volume of saline by gavage. After that, the rats were anesthetized with chloral hydrate 300 mg/kg (1 ml/100 g) and fixed on a rat plate, and the abdominal wall was incised along the abdominal midline from the subxiphoid process of the sternum, and the incision was approximately 2-3 cm and was made on the left costal margin, and the stomach was exposed to the incision by gently pushing it with the fingers upwards. The pylorus was ligated with a thread under the pylorus (other neighboring vessels were not ligated), and the abdominal wall incision was sutured. The animals were given histamine dihydrochloride (30 mg/10 ml/kg) subcutaneously after 1 h of gavage of the test compound or saline. After 3 h of histamine administration, the rats were asphyxiated with excess CO2, stomachs were removed, stomach contents were collected and centrifuged at 3000 rpm/min for 10 min, and the acid solution was titrated with 0.1 mol/L NaOH to pH7.0. The total acidity and acid inhibition rate during the 3 h period were calculated.
Acid inhibition rate (%)=(Total acid in the model group−total acid in the test group)/total acid in the model group×100%

The target in data set [2] is H+/K+-ATPase (rabbit gastric mucosal microsomes) (Oryctolagus cuniculus (Rabbit), UniProt P27112). The experiment in a line: In vitro screening test of H+/K+-ATPase inhibition (malachite green). The format is biochemical. Particulars: pH 6.5, 37° C. 30 min, read-out: IC50, inhibitory effect on H+/K+-ATPase activity. From the text: This test example evaluates the inhibitory effects of the compounds of the present invention on the activity of H+/K+-ATPase by an in vitro screening test, and expresses them with the IC50 values of the compounds (obtained by calculating the inhibition rates at different concentrations).
Sequence of H+/K+-ATPase (rabbit gastric mucosal microsomes) (P27112 whole entry): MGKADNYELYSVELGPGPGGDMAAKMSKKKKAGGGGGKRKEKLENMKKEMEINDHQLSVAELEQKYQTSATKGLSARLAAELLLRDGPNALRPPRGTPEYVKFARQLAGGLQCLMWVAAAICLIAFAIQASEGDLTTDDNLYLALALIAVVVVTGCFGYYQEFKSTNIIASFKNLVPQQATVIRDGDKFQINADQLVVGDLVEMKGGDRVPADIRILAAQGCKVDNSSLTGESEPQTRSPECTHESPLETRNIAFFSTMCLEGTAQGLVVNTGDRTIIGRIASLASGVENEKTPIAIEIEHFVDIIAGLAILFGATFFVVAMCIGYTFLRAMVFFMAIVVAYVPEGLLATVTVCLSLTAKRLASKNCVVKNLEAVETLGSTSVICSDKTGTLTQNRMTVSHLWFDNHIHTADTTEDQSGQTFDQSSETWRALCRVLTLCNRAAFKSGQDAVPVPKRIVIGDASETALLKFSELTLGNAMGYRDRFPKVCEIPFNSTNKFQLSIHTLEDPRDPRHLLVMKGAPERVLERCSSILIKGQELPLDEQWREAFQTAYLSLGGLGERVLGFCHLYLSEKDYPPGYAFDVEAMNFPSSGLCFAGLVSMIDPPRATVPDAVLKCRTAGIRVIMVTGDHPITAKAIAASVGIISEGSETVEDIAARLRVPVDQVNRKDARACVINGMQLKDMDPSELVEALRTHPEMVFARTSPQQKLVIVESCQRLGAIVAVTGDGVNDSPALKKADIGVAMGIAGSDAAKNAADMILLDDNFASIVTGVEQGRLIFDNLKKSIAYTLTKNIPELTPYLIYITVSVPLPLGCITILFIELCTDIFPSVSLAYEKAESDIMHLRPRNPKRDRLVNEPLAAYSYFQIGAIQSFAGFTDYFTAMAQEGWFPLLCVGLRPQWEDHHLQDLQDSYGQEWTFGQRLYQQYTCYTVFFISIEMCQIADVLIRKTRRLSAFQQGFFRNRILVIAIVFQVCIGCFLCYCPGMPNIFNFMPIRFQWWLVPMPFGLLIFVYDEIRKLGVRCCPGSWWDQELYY
Sequence of H+/K+-ATPase (rabbit gastric mucosal microsomes) (P18597 whole entry partner): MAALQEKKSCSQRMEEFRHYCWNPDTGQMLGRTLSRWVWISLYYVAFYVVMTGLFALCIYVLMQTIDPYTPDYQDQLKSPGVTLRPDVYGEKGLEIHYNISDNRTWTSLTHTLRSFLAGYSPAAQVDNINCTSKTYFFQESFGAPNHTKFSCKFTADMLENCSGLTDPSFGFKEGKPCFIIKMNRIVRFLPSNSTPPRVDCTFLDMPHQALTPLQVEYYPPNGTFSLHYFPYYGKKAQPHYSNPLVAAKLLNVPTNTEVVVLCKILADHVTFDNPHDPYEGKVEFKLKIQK
• Compound solutions: The products (i.e., the compounds or the hydrochloride salt of compounds) obtained in the foregoing preparation examples of the present invention were each independently dissolved in DMSO to form solutions at suitable concentrations; • Buffer I: 50 mmol/L HEPEs-Tris, pH=6.5, 5 mmol/L magnesium chloride, […] valinomycin (J&K Scientific Ltd., goods No.: 227304); • Buffer II: 50 mmol/L HEPEs-Tris, pH=6.5, 5 mmol/L magnesium chloride, […] valinomycin, 5 mmol/L potassium chloride; • 5-adenosine triphosphate (ATP, Sigma-Aldrich, goods No.: A2383) solution: Dilute ATP with buffer I to 5 mM; • Malachite green solution: Dissolve 0.12 wt % malachite green (J&K Scientific Ltd., goods No.: 913120) in 2.5 mol/L sulfuric acid, 7.5 wt % ammonium molybdate (J&K Scientific Ltd., goods No.: 128321) and 11% Tween 20(V/V). During use, sulfuric acid, ammonium molybdate and Tween 20 are mixed in a ratio of 100:25:2; • Rabbit gastric mucosal microsomes (rich in H+/K+-ATPase, self-extracted), extracted by sucrose gradient centrifugation: The rabbit stomach was washed with tap water and 3M NaCl solution, respectively, and then the surface water was removed with filter paper. A pre-cooled homogenization buffer (4 ml/g tissue) was added and homogenized for 2-5 min in a tissue homogenizer. After the homogenizing, if there are large tissue particles, they can be removed by centrifugation (600 g, 10 min). The supernatant was then transferred to a clean centrifuge tube and centrifuged at 20,000 g for 30 min, then the supernatant was transferred to a clean centrifuge tube and further centrifuged at 100,000 g for 90 min and the precipitate was collected; the precipitate was suspended in homogenate and blown evenly, and the protein concentration was measured by the Bradford's method and adjusted to 10 mg/ml; 7.5 wt % Ficoll's layering solution was added in equal proportions. After centrifugation at 100,000 g for 60 min, the middle layer (H^+/K^+-ATPase-enriched gastric membranes) was collected in a clean centrifuge tube, diluted with homogenate by 4-5 times, and then centrifuged at 100,000 g for another 90 min, and the precipitate was collected; the precipitate was suspended in homogenate and homogenized in a glass homogenizer, and the protein concentration was measured by the Bradford's method and adjusted to 22.5 mg/ml. It was frozen at −80° C. and stored for future use.
5 μL of rabbit gastric mucosal microsomes (H^+/K^+-ATPase) was added to 45 μL of buffer II, then 5 μL of compound solution was added, and then 5 μL of 5 mM ATP solution was added to start the reaction and pre-react at 37° C. for 30 min. 15 μL of malachite green solution was added to terminate the reaction, balancing was conducted at room temperature for 20 min, and read the optical absorbance at 620 nm.
Meanwhile, the reaction of the same volume was carried out without addition of potassium chloride as a background, which was subtracted when calculating enzymatic activity.

A short description of data set [3]: Rat tissue distribution test (oral, LC-MS-MS). The format is in vivo. On the set-up: Hepatic drug concentration: unit not given here. To be noted: liver, oral 4 mg/kg, rat. The protocol:
Three healthy male SD rats (body weight range 220-250 g, Zhejiang Charles River) were taken and assigned into one group (n=3). Compound 48, Compound A9 or comparison compound Vonoprazan were administered orally at a dose of 4 mg/kg.
Solvent for preparing pharmaceutical preparations: Pure water. The rats were fasted 4 h prior to the administration. […] The tissue was homogenized, and the corresponding blank tissue was used for preparation of a calibration curve and QC quantification. Blood samples should be centrifuged to extract plasma within 1 hour of collection and kept on crushed ice prior to the centrifugation. Plasma samples obtained by centrifugation were stored in a freezer until analysis. Centrifugation conditions: 4-10° C., 8000 rpm, 6 min. The concentration of the sample was determined by LC-MS-MS (MS03: Shimadzu LC30AD and API 4000)), and the exposure data were calculated by WINNOLIN software.

For `CNCc1cc(-c2ccc(OCC3CCOCC3)cc2F)n(S(=O)(=O)c2cccnc2)c1` [Compound 6], in data set [1] (2 mg/kg by gavage), the Acid inhibition rate worked out at 48%. In data set [2], the IC50 was found to be 149 nM.
In the same order, the values of `CNCc1cc(-c2ccc(OC(C)C3CCOCC3)cc2F)n(S(=O)(=O)c2cccnc2)c1` (stereo not shown) [Compound 8] are 71% and 72.1 nM.
Take `CNCc1cc(-c2ccc(OCC3CCOCC3)cc2F)n(S(=O)(=O)c2cccc(C#N)c2)c1` [Compound 28]: the Acid inhibition rate in data set [1] (2 mg/kg by gavage) worked out at 71%. The IC50 in data set [2] came out at 30.8 nM.
In the same order, the values of `CNCc1cc(-c2ccc(OC(C)C3CCOCC3)cc2F)n(S(=O)(=O)c2cccc(OCCCOC)c2)c1` (stereo not shown) [Compound 37] are 56% and 157 nM.
In the same order, the values of `CNCc1cc(-c2ccc(OC(C)c3c(F)cccc3F)cc2F)n(S(=O)(=O)c2cccnc2)c1` (stereo not shown) [Compound 67] are 64% and 41 nM.
Regarding `CNCc1cc(-c2ccc(OC(C)c3c(F)cccc3F)cc2F)n(S(=O)(=O)c2cccc(OCC3CCCC3)c2)c1` (stereo not shown) [Compound 85], in data set [2], the IC50 was determined as 9780 nM.
Turning to `CNCc1cc(-c2ccc(OCc3cc(F)ccc3F)cc2F)n(S(=O)(=O)c2cccc(OCCOC)c2)c1` [Compound 86], the IC50 in data set [2] came to 34.4 nM.
In the case of `CNCc1cc(-c2ccc(OCc3ccccc3OC)cc2F)n(S(=O)(=O)c2cccc(OCCOC)c2)c1` [Compound 87], the IC50 in data set [2] is 43.4 nM.
Turning to `CNCc1cc(-c2ccc(OC(C)c3c(F)cccc3F)cc2F)n(S(=O)(=O)c2cccc(OCCCOC)c2)c1` (stereo not shown) [Compound 88], the IC50 in data set [2] was found to be 450 nM.
The same measure, in the same setting: for `CNCc1cc(-c2ccc(OC(C)c3cc(F)cc(F)c3)cc2F)n(S(=O)(=O)c2cccc(OCCCOC)c2)c1` (stereo not shown) [Compound 89] the value was 1330 nM.
Consider `CNCc1cc(-c2ccc(OCc3ccc4ccccc4c3)cc2F)n(S(=O)(=O)c2cccc(OCCCCOC)c2)c1` [Compound 90], for which the IC50 in data set [2] was 2690 nM.
Take `CNCc1cc(-c2ccc(OC(C)c3c(F)cccc3F)cc2F)n(S(=O)(=O)c2cccc(OCCCCOC)c2)c1` (stereo not shown) [Compound 91]: the IC50 in data set [2] was determined as 693 nM.
Consider `CNCc1cc(-c2ccc(OC(C)c3cc(F)cc(F)c3)cc2F)n(S(=O)(=O)c2cccc(OCCCCOC)c2)c1` (stereo not shown) [Compound 92], for which the IC50 in data set [2] came out at 1910 nM.
On to `CNCc1cc(-c2ccc(OCc3cccc4c3OCO4)cc2F)n(S(=O)(=O)c2cccc(OCCCCOC)c2)c1` [Compound 93], for which the IC50 in data set [2] is 12400 nM.
Still for that read-out and setting: the value for `CNCc1cc(-c2ccc(OCc3cccc4c3OCO4)cc2F)n(S(=O)(=O)c2cccnc2)c1` [Compound 94] was 48.4 nM; that for `CNCc1cc(-c2ccc(OCc3cccc4c3OCO4)cc2F)n(S(=O)(=O)c2cccc(C#N)c2)c1` [Compound 95] was 9.5 nM.
Still for that read-out and setting: for `CNCc1cc(-c2ccc(OCc3cccc4c3OCCO4)cc2F)n(S(=O)(=O)c2cccnc2)c1` [Compound 96] the value was 51.1 nM; for `CNCc1cc(-c2ccc(OCc3cccc4c3OCCO4)cc2F)n(S(=O)(=O)c2cccc(C#N)c2)c1` [Compound 97], 11.9 nM.
`CNCc1cc(-c2ccc(OCc3cc(F)ccc3F)cc2F)n(S(=O)(=O)c2cccc(C(F)(F)F)c2)c1` [Compound 98]: in data set [2], the IC50 was determined as 485 nM.
On the same count and under the same terms, for `CNCc1cc(-c2ccc(OCCc3cc(F)cc(F)c3)cc2F)n(S(=O)(=O)c2cccnc2)c1` [Compound 99] the value was 72.6 nM.
`CNCc1cc(-c2ccc(OCc3ccoc3)cc2F)n(S(=O)(=O)c2cccnc2)c1` [Compound 100]: in data set [2], the IC50 worked out at 101 nM.
Regarding `CNCc1cc(-c2ccc(OCc3cccnc3F)cc2F)n(S(=O)(=O)c2cccnc2)c1` [Compound A1], the Acid inhibition rate in data set [1] (2 mg/kg by gavage) worked out at 68%. In addition, the IC50 in data set [2] came out at 66.7 nM.
With `CNCc1cc(-c2ccc(OCc3cccnc3C)cc2F)n(S(=O)(=O)c2cccnc2)c1` [Compound A2], the IC50 in data set [2] came to 155 nM.
With `CNCc1cc(-c2ccc(OCc3cnn(C)c3)cc2F)n(S(=O)(=O)c2cccnc2)c1` [Compound A3], in data set [1] (2 mg/kg by gavage), the Acid inhibition rate was determined as 65%. Besides, in data set [2], the IC50 worked out at 51.6 nM.
Molecule `CNCc1cc(-c2ccc(OCc3ccc(OC)nc3)cc2F)n(S(=O)(=O)c2cccnc2)c1` [Compound A4] displayed an Acid inhibition rate in data set [1] (2 mg/kg by gavage) of 60%.
As to `CNCc1cc(-c2ccc(OCc3ncccc3F)cc2F)n(S(=O)(=O)c2cccnc2)c1` [Compound A6], in data set [2], the IC50 is 157 nM.
Molecule `CNCc1cc(-c2ccc(OCc3cccnn3)cc2F)n(S(=O)(=O)c2cccnc2)c1` [Compound A7] yielded an Acid inhibition rate in data set [1] (2 mg/kg by gavage) of 53%.
In the case of `CNCc1cc(-c2ccc(OCc3ccn(C)n3)cc2F)n(S(=O)(=O)c2cccnc2)c1` [Compound A8], in data set [1] (2 mg/kg by gavage), the Acid inhibition rate was found to be 58%. In addition, the IC50 in data set [2] was 18.4 nM.
Regarding `CNCc1cc(-c2ccc(OCC3CC3(F)F)cc2F)n(S(=O)(=O)c2cccnc2)c1` (stereo not shown) [Compound A10], the Acid inhibition rate in data set [1] (2 mg/kg by gavage) was found to be 81%; in data set [1] (4 mg/kg by gavage), 87%. For the same molecule, in data set [2], the IC50 is 27.7 nM.
On to `CNCc1cc(-c2ccc(OCC3CO3)cc2F)n(S(=O)(=O)c2cccnc2)c1` (stereo not shown) [Compound A11], for which the Acid inhibition rate in data set [1] (2 mg/kg by gavage) is recorded as 81%. Besides, the IC50 in data set [2] amounted to 14.1 nM.
In data set [1] (2 mg/kg by gavage), `CNCc1cc(-c2ccc(OCC3COC3)cc2F)n(S(=O)(=O)c2cccnc2)c1` [Compound A12] yielded an Acid inhibition rate of 63%. Further, in data set [2], the IC50 is 119 nM.
Take `CNCc1cc(-c2ccc(OCC3CCOC3)cc2F)n(S(=O)(=O)c2cccnc2)c1` (stereo not shown) [Compound A13]: the Acid inhibition rate in data set [1] (2 mg/kg by gavage) is 60%. In addition, in data set [2], the IC50 amounted to 128 nM.
Regarding `CNCc1cc(-c2ccc(OCC3CCCO3)cc2F)n(S(=O)(=O)c2cccnc2)c1` (stereo not shown) [Compound A14], the Acid inhibition rate in data set [1] (2 mg/kg by gavage) stood at 63%.
With `CNCc1cc(-c2ccc(OCC3CCO3)cc2F)n(S(=O)(=O)c2cccnc2)c1` (stereo not shown) [Compound A15], the Acid inhibition rate in data set [1] (2 mg/kg by gavage) is recorded as 64%.
On to `CNCc1cc(-c2ccccc2F)n(S(=O)(=O)c2cccnc2)c1` [Vonoprazan, reference compound], for which the Hepatic drug concentration in data set [3] (15 min) turned out to be 9919; in data set [3] (1 h) it was 1192; in data set [3] (2 h), 632; in data set [3] (4 h), 162; in data set [3] (24 h), 23.7.
